Test results: patent publication US9956176B2, “Compositions and methods for treating ewing sarcoma” (priority 2014, dated 2018)
d = 2'-deoxy (DNA); m = 2'-O-methyl

How the values were obtained:
FEZF1-AS1 = FEZF1-AS1 expression in A673 cells; type: cell-based, human
[1] = type: in vivo; conditions: once a week IV
Excerpt: (§1) To complete the mouse efficacy and safety studies we injected NOG mice with 6×10^6 luciferase transfected human Acute Lymphoblastic Leukemia (REH cells). This special transgenic type of mouse has deletions in the gene encoding the interleukin 2 receptor γ (IL2Rγ) and has added genes expressing human iL3, GM-CSF and SCF. To prevent rejection of injected human leukemia cells, the NOG mice have a complete lack of B, T, and NK cells, and a deficiency of cytokine signaling. The mice were separated into six groups. Group 1 received only buffer treatment; group 2-untargeted, unloaded HPLN; group 3-untargeted, HPLN/Dox (2 mg Dox/kg); group 4-(targeted) anti-CD-19/HPLN/Dox (2 mg Dox/kg); group 5-Doxil (2 mg Dox/kg); and group 6-(free) doxorubicin (2 mg Dox/kg).
(§2) Upon injection of the leukemia cells, Xenogen camera images were done once per week and used to assess both tumor cell distribution and quantitative tumor burden. After 10 days post leukemia cell injection, our targeted nanoparticle drug (anti-CD-19/HPLN/Dox) or control particles or drugs, were administered to the mice, in once a week dosages. The amount of drug given was based on the active substance (doxorubicin), not on total nanoparticle mass in each formulation (except for group 2, these mice received an equivalent HPLN dose in unloaded form). […]

[2] = system: human Acute Lymphoblastic Leukemia (REH cells); assay: REH-Luc leukemia xenograft, tumor burden by Xenogen camera; type: in vivo, mouse
Excerpt: as §1, §2

RNA polymerase II = target: T1, RNA polymerase II (Homo sapiens, UniProt P24928); assay: inhibition of FEZF1-AS1 transcription; type: cell-based
T1 construct: endogenous in cells; host or cells: Ewing sarcoma cells
Excerpt: FEZF1-AS1 is located on human chromosome 7q31.32 on the positive strand and overlaps the first two exons of protein-coding gene, FEZF1, which lies on the opposite strand. To characterize this gene in Ewing sarcoma, we performed Northern blot analysis using different biotin-labelled probes that confirmed the 2.6 kb transcript was predominantly expressed in Ewing sarcoma. […] RNA-sequencing of two Ewing sarcoma cell lines, CHLA-9 and CHLA-10, identified multiple isoforms of the transcript, some of which included introns and/or extended beyond exon 7. CHLA-9 and CHLA-10 are Ewing sarcoma cell lines from the same patient. CHLA-9 is from the primary tumor and CHLA-10 is from the metastatic tumor. We validated some of the isoforms by PCR and Sanger sequencing. To confirm the annotation of FEZF1-AS1 as a non-coding RNA, we used the coding potential calculator algorithm that assigned a low score of −1.2 compared to scores of 5 and above for coding genes such as FLI1, and NR0B1. FEZF1-AS1 transcription was inhibited by alpha-amanitin but not by RNA Polymerase III inhibitor, thus confirming that RNA polymerase II transcribes the lncRNA. […] Thus, lncRNA FEZF1-AS1 is a highly expressed gene is Ewing sarcoma.

Molecule: 5-mG*mU*mG*mU*mG*T*G*T*G*T*C*T*G*C*T*mU*mG*mU*mU*mU-3′ (antisense GUGUGTGTGTCTGCTUGUUU; sugars from the 5' end m5 d10 m5, all phosphorothioate, methylation of C not given here) [FA7]
- knockdown levels (FEZF1-AS1; A673, 48 hours): about 50%
- FEZF1-AS1 levels reduced to (FEZF1-AS1; A673, nucleofection, 24 hours): 80%

Molecule: COc1cccc2c1C(=O)c1c(O)c3c(c(O)c1C2=O)C[C@@](O)(C(=O)CO)C[C@@H]3O[C@H]1C[C@H](N)[C@H](O)[C@H](C)O1 [doxorubicin]
- tolerability, acute toxic reactions [1]: lose weight and appeared sickly
- tumor growth / tumor reduction ([2]; 2 mg Dox/kg once a week from day 10, IV, FIG. 4): significant tumor reduction
- tumor size and burden ([2]; 2 mg Dox/kg, day 35, FIG. 8): markedly less

Molecule: alpha-amanitin
- FEZF1-AS1 transcription (RNA polymerase II): inhibited
